Data on 5 compounds can be found in the supplement of paper PMC11061612.

Test [1] deals with CAS-1 (Glioblastoma). In words: Bliss excess, mean over the matrix (fraction); higher = more synergy. The essentials: (§1)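 Cell lines grown in DMEM/F12 or RPMI with 10% FBS were plated in 1536-well plates and held 24 hours at 37°C, 5% CO2 before 72 hours of exposure to two-drug dose matrices, with DMSO typically at 0.2%. CellTiter-Glo 2.0 luminescence gave viability, which was converted to inhibition. Vehicle wells were set to 0 and blank wells to 1. Combination Emax is the second-highest inhibition in the matrix, and Bliss excess is the observed combination effect minus the expected EA + EB − EA·EB, where EA and EB are the single-agent effects.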

The test system of test [2] is CCK-81 (Colorectal Carcinoma). The test is described as above. The procedure, abridged:
as §1

Test [3] relates to COLO-824 (Breast Carcinoma). The test is described as above. The essentials: as §1
The subject of test [4] is COR-L311 (Small Cell Lung Carcinoma). The test is described as above. The essentials:
as §1

In test [5] the test system is ECC10 (Gastric Carcinoma). Described as above. The essentials: as §1
The subject of another test is FU97 (Gastric Carcinoma). Described as above. The procedure, abridged: as §1
The subject of a further test is Hs-445 (Non-Cancerous). The description is as above. The essentials:
as §1

Test [6] concerns KARPAS-422 (B-Cell Non-Hodgkin's Lymphoma). Described as above. The essentials: as §1
Test [7] relates to NCI-H1581 (Non-Small Cell Lung Carcinoma). The description is as above. The procedure, abridged: as §1
Test [8] deals with NCI-H1666 (Lung Adenocarcinoma). Described as above. The procedure, abridged: as §1
For test [9], the system named is NCI-H1693 (Lung Adenocarcinoma). The test is described as above. The essentials:
as §1

Another test concerns NY (Osteosarcoma). The test is described as above. The procedure, abridged:
as §1

In test [10] the test system is ONS-76 (Other Solid Carcinomas). Described as above. The procedure, abridged:
as §1

Test [11] relates to OS-RC-2 (Kidney Carcinoma). The test is described as above. The procedure, abridged: as §1
A further test deals with PA-1 (Ovarian Carcinoma). Described as above. The procedure, abridged: as §1
Test [12] relates to SISO (Cervical Carcinoma). Described as above. The essentials: as §1
For a further test, the system named is U-2-OS (Osteosarcoma). The test is described as above. The procedure, abridged: as §1
For test [13], the system named is CAS-1 (Glioblastoma). In words: combination Emax (second highest fraction inhibited in the dose matrix, 72 h); higher = more inhibition; extreme values may be limits of the assay. The essentials:
as §1

The subject of test [14] is COLO-824 (Breast Carcinoma). Described as above. The procedure, abridged:
as §1

Test [15] relates to NCI-H2141 (Small Cell Lung Carcinoma). Described as above. The essentials: as §1
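Throughout, for Bliss excess, mean over the matrix: after 72 h of two-drug dosing.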

Turning to `CC1(C)CCC(CN2CCN(c3ccc(C(=O)NS(=O)(=O)c4ccc(NCC5CCOCC5)c([N+](=O)[O-])c4)c(Oc4cnc5[nH]ccc5c4)c3)CC2)=C(c2ccc(Cl)cc2)C1` [Venetoclax] + COc1cc(Nc2ncc3c(n2)-c2ccc(Cl)cc2C(c2c(F)cccc2OC)=NC3)ccc1C(=O)O [Alisertib] (first compound max 1 µM, 7x7, partner max 10 µM), the Bliss excess in the test on CAS-1 (Glioblastoma) [1] was -0.0341; in test [2] it was 0.0196; in [3], 0.206; in test [4], 0.0981; in [5] it was -0.0281; in the test with FU97 (Gastric Carcinoma), -0.0524. Also, the Bliss excess was 0.374 in the test with Hs-445 (Non-Cancerous); 0.137 in [6]; 0.0694 in test [7]; -0.0713 in test [8]; -0.0862 in [9]; -0.0009 in the test with NY (Osteosarcoma). Also, the Bliss excess in [10] is -0.0478; in test [11], -0.0547; in the test with PA-1 (Ovarian Carcinoma), 0.0385; in test [12], 0.0121; in the test with U-2-OS (Osteosarcoma), 0.0055. The “combination Emax” value turned out to be 0.744 with CAS-1 (Glioblastoma) [13], 1 in [14] and 0.518 in test [15].
For the compound `CC1(C)CCC(CN2CCN(c3ccc(C(=O)NS(=O)(=O)c4ccc(NCC5CCOCC5)c([N+](=O)[O-])c4)c(Oc4cnc5[nH]ccc5c4)c3)CC2)=C(c2ccc(Cl)cc2)C1` [Venetoclax] + C[C@@H]1COCCN1C2=NC(=NC(=C2)C3(CC3)[S@](=N)(=O)C)C4=C5C=CNC5=NC=C4 [AZD6738] (first compound max 1 µM, 7x7, partner max 10 µM), the Bliss excess is -0.0068 in the test with CAS-1 (Glioblastoma) [1]; -0.0197 in test [2]; -0.0203 in test [3]; -0.0291 in test [4]; -0.0132 in test [5]; -0.0455 in the test on FU97 (Gastric Carcinoma). The Bliss excess in the test on Hs-445 (Non-Cancerous) was 0.0577; in test [6] it was -0.0055; in test [7], 0.007; in test [8], -0.0405; in test [9], -0.0147; with NY (Osteosarcoma), -0.0597. The Bliss excess is -0.0531 in test [10]; -0.0804 in [11]; -0.006 in the test on PA-1 (Ovarian Carcinoma); -0.0309 in [12]; -0.0469 in the test on U-2-OS (Osteosarcoma). Besides, the “combination Emax” value in the test on CAS-1 (Glioblastoma) [13] stood at 0.623; in [14], 0.944; in test [15] it was 0.637.
Consider `CC1(C)CCC(CN2CCN(c3ccc(C(=O)NS(=O)(=O)c4ccc(NCC5CCOCC5)c([N+](=O)[O-])c4)c(Oc4cnc5[nH]ccc5c4)c3)CC2)=C(c2ccc(Cl)cc2)C1` [Venetoclax] + C[C@@H](Nc1cc(F)cc(F)c1)c1cc(C(=O)N(C)C)cc2c(=O)cc(N3CCOCC3)oc12 [AZD8186] (first compound max 1 µM, 7x7, partner max 3 µM), for which the Bliss excess was -0.04 in the test with CAS-1 (Glioblastoma) [1]; -0.0287 in [2]; 0.139 in test [3]; 0.0257 in [4]; 0.0539 in test [5]; -0.0019 in the test with FU97 (Gastric Carcinoma). Besides, the Bliss excess was 0.0888 in the test with Hs-445 (Non-Cancerous); 0.0808 in test [6]; 0.0121 in [7]; -0.0705 in [8]; -0.034 in test [9]; 0.0226 in the test on NY (Osteosarcoma). Also, the Bliss excess in test [10] was -0.025; in test [11], -0.0629; in the test with PA-1 (Ovarian Carcinoma), -0.0401; in [12], -0.0268; with U-2-OS (Osteosarcoma), -0.0269. In addition, the “combination Emax” value in the test with CAS-1 (Glioblastoma) [13] amounted to 0.399; in test [14] it was 0.921; in test [15] it was 0.361.
`CC1(C)CCC(CN2CCN(c3ccc(C(=O)NS(=O)(=O)c4ccc(NCC5CCOCC5)c([N+](=O)[O-])c4)c(Oc4cnc5[nH]ccc5c4)c3)CC2)=C(c2ccc(Cl)cc2)C1` [Venetoclax] + Cc1cc2ncnn2cc1Nc1ncc2c(n1)n(C1CCOCC1)c(=O)n2C [AZD7648] (first compound max 1 µM, 7x7, partner max 10 µM): the Bliss excess is -0.05 in the test on CAS-1 (Glioblastoma) [1]; -0.0114 in [2]; 0.0222 in test [3]; 0.0472 in test [4]; 0.0065 in test [5]; -0.0387 with FU97 (Gastric Carcinoma). Also, the Bliss excess with Hs-445 (Non-Cancerous) is -0.0081; in [6], 0.0157; in test [7], 0.0081; in [8], -0.0821; in test [9], 0.0211; in the test on NY (Osteosarcoma), 0.0011. Besides, the Bliss excess is -0.0499 in test [10]; -0.0584 in test [11]; -0.0014 in the test with PA-1 (Ovarian Carcinoma); -0.01 in [12]; -0.0178 with U-2-OS (Osteosarcoma). Also, the “combination Emax” value worked out at 0.279 in the test with CAS-1 (Glioblastoma) [13], 0.766 in test [14] and 0.178 in test [15].
For the compound `CC1(C)CCC(CN2CCN(c3ccc(C(=O)NS(=O)(=O)c4ccc(NCC5CCOCC5)c([N+](=O)[O-])c4)c(Oc4cnc5[nH]ccc5c4)c3)CC2)=C(c2ccc(Cl)cc2)C1` [Venetoclax] + Cn1cnc2c(F)c(Nc3ccc(Br)cc3Cl)c(C(=O)NOCCO)cc21 [Selumetinib] (first compound max 1 µM, 7x7, partner max 3 µM), the Bliss excess is -0.035 in the test with CAS-1 (Glioblastoma) [1]; 0.0338 in test [2]; 0.0356 in [3]; -0.0367 in [4]; 0.0364 in [5]; -0.0378 in the test on FU97 (Gastric Carcinoma). Further, the Bliss excess with Hs-445 (Non-Cancerous) was 0.0401; in test [6], -0.0238; in test [7], -0.0158; in [8] it was 0.025; in test [9] it was -0.0396; with NY (Osteosarcoma), -0.0331. Moreover, the Bliss excess in [10] is -0.141; in [11] it was -0.101; in the test on PA-1 (Ovarian Carcinoma) it was -0.0117; in test [12], -0.0162; in the test with U-2-OS (Osteosarcoma) it was -0.0309. Besides, the “combination Emax” value stood at 0.158 in the test on CAS-1 (Glioblastoma) [13], 0.829 in test [14] and 0.159 in test [15].
